Entries after “also recorded” stand apart in the source; their conditions may differ.
Tests used:
[1] = system: mouse maxillary first molars; conditions: in vivo
Method: (§3) To test the induction of Axin2 in vivo, an injury model was developed. Mice were anaesthetized with a solution of Hypnorm (Fentanyl/fluanisone—VetaPharma Ltd.), water and Hypnovel (Midazolam—Roche) in the ratio 1:2:1 at 10 ml/kg by an intraperitoneal injection. Experimental tooth damage was created by drilling and making 0.13 mm holes in mouse maxillary first molars to expose the pulp. A rounded carbide bur FG ¼ coupled to a high speed hand piece was used to access the dentine. Once the bur cut exposed the dentine, a 30G needle was used to penetrate the pulp.
(§4) In order to protect the pulp from external contamination and stimulate dentine repair, the injury was capped either with ProRoot Mineral Trioxide Aggregate (MTA) (Maillfer Dentsply), or Kolspon (Fish Collage Type 1—Eucare Ltd) alone, or in association with 50 nM BIO (SIGMA), 5 μM CHIR99021 (SIGMA), or 50 nM Tideglusib (SIGMA) dissolved and diluted in DMSO, in contact with the pulp. Pieces of Kolspon were cut to size and soaked in solutions of the three inhibitors before being physically placed into the holes, in contact with the pulp.
(§5) The model described in Example 2 was then used to examine the effect on the formation of reparative dentine. Molars were drilled and sponges inserted and left as described in Example 2, this time for 4-6 weeks before the mice were sacrificed.
(§6) After 4 weeks decalcification in 19% EDTA the teeth were embedded in wax blocks and sectioned using 0.8 μm thickness. Sections were stained using Masson's Trichrome to reveal new dentine formation.

[2] = system: Axin2 (Wnt activity) in 171A4 mouse dental pulp cells; assay: In vitro drug release from Kolspon sponge, Axin2 qPCR; type: cell-based; conditions: for Wnt activity (Axin2 qPCR): drug in collagen sponge incubated with cells, 50 nM BIO, 50 nM Tideglusib, vs media or sponge without drug
Method: In vitro drug release from Kolspon sponge was tested. 171A4 cells were plated in 24-well plates and incubated (37° C., 5% CO2/95% air, 100% humidity) for 24 h using standard culture medium. Falcon™ cell culture inserts for use with 24-well plates ([…]) were placed in the wells carrying 96 mm^2 Kolspon cubes either dry or soaked in 30 μl of the drug optimal concentration for 15 and 30 minutes, 1, 6, and 12 hours. The cells were collected with TRIzol and stored at −20° C.
RNA was extracted from the cells using TRIzol (Thermo Fisher Scientific) as recommended by the manufacturer. RNA was quantified using Nanodrop and reverse transcribed into cDNA. Beta-actin was used as housekeeping gene (Forward-[…] (SEQ ID NO 1), Reverse-[…]) (SEQ ID NO 2) and Axin2 for Wnt activity (Forward-[…] (SEQ ID NO 3), Reverse- TGCCCACACTAGGCTGACA (SEQ ID NO 4).

[3] = system: mouse maxillary first molars; assay: Reparative dentine formation after pulp exposure, micro-CT mineral analysis; type: in vivo
Method: T filled with mineral=0.0017 mg.

[4] = system: mouse maxillary first molars; assay: Reparative dentine formation after pulp exposure, Masson's Trichrome histology
Method: as §3, §4, §5, §6

[5] = system: Axin2 (Wnt activity) in dental pulp cells; assay: Induction of Axin2 in vivo, pulp exposure injury model, qPCR of pulp cells; design: species or system mouse; conditions: one day after injury and capping; vs control, MTA or collagen sponge
Method: A glass ionomer cement was used to cover the sponge and protect the tooth (FIG. 2G). Specifically, a layer of 3M Ketac-Cem Radiopaque was used as a capping material to seal the injured site. The injury was performed on the two upper first molars. Post-op the mice were given Vetergesic (Buprenorphine—Ceva) at the rate of 0.3 mg/kg intraperitonially as analgesic. The animals were sacrificed after 1 day.
Treated teeth were removed after 24 h along with controls consisting of untreated teeth, MTA only and collagen sponge with no inhibitor.
Molars were extracted using a 21G needle as an elevator to lift them from the alveolar bone and kept in ice cold PBS. Using a 23 scalpel blade the molars were separated at the crown-root junction, so that the pulp chamber could be visualized. Using a 0.6 mm straight tip tweezer the pulp was gently scraped from the pulp chamber and the root canal. The pulp was then placed into cold Sigma RNAlater and stored at −80° C.
The extracted cells were tested for expression of Axin2 by qPCR as described in Example 1 (FIG. 1E). Expression of Axin2 was 3× higher in inhibitor treated pulp cells when compared to controls (FIG. 1E).

[6] = system: human deciduous tooth dental pulp cells; conditions: cited from earlier work
[7] = system: mouse maxillary first molars; assay: Reactionary dentine formation, non-exposed pulp injury model, Masson's Trichrome histology; conditions: for Structure of reactionary dentine (histology): 4 weeks after injury without pulp exposure
Method: (§1) To investigate the effect of modulation of Wnt signaling on reactionary dentine formation, a reproducible tooth damage model was established. 6 weeks old, Axin2^−CreERT2; Rosa26−mTmG (fl/+) and GPR1777(Wntless)^−pCAGCreERT2 (fl/fl) mice were injected intraperitoneally with three doses of tamoxifen (2 mg per 30 g mouse, SIGMA), one dose a day. 5 days after the last tamoxifen injection, the height of the middle cusp of mouse maxillary first molars were reduced without exposing the dental pulp, leaving a band of dentine to protect the inner pulp tissue (FIG. 5).
The exposed dentine was capped either with calcium hydroxide (Dycal; Dentsply) or mineral trioxide aggregate (MTA) (ProRoot MTA; Dentsply), or dry collagen sponge (Kolspon-Fish Collage Type 1; Eucare Ltd), or collagen sponge soaked in dimethyl sulfoxide (DMSO; SIGMA), or 50 nM Tideglusib, or 1 μM LY2157299, or 1 μM Dorsomorphin. All drugs were dissolved and diluted in DMSO. A layer of glass ionomer cement (Ketac-Cem Radiopaque; 3M ESPE) was used as a sealing material. Vetergesic (Buprenorphine—Ceva) was injected to all mice post-operative at the rate of 0.3 mg/kg by intraperitoneal injection as analgesic. The animals were sacrificed after 1 day and 4 weeks. A total of 14 genetically-modified mice (28 damaged molars) and 26 CD1 mice (52 molars) were used.
After 4 weeks decalcification in 19% EDTA pH 6, the teeth were embedded in wax blocks and sectioned at 8 μm thickness. Sections were histologically stained using Masson's Trichrome.
Sequestered latent BMP and TGF-β proteins present in the dentine matrix have been implicated in tertiary dentine formation following damage, mainly based on results obtained from in vitro experiments. The effect of inhibition of these signalling pathways in was investigated in the in vivo model of reactionary dentine formation described in Example 5 by utilising small molecules to inhibit these signalling pathways. The small molecule LY2157299 is a TGF-β type I receptor kinase inhibitor and the small molecule Dorsomorphin is an inhibitor of BMP type I receptors ALK2, ALK3 and ALK6 (Bhola et al. 2013, Yu et al. 2008). Both compounds were first tested for cytotoxicity and effectiveness of signalling pathway blocking in vitro using 17IA4 cells. The first upper molars of CD1 mice were damaged to stimulate reactionary dentine formation and a collagen sponge was soaked in either 1 μM LY2157299 or 1 μM Dorsomorphin was used as a delivery vehicle. The sponges were placed on the exposed dentine and sealed with a layer of glass ionomer.

[8] = system: TCF/Lef:H2B-GFP and Axin2-CreERT2 Wnt responsive cells; assay: GFP immunohistochemistry of Wnt responsive cells in reporter mice 1 day after injury; type: in vivo, mouse
Text: (§2) Since Wnt/β-catenin signaling is required for reparative dentine formation we investigated if this pathway plays a role in reactionary dentine formation. The small molecule GSK3 antagonist Tideglusib was delivered on collagen sponges at the site of damage and sealed with glass ionomer. Sponge alone and MTA sealed with glass ionomer were used as controls. To identify whether cells responded to the drug, TCF/Lef:H2B-GFP, Axin2^−CreERT2; Rosa26−mTmG flox/+ and CD1 wild type mice were used. TCF/Lef:H2B-GFP reporter mice allowed the visualisation of Wnt active cells (ie. Cells receiving a Wnt signal), Axin2^−CreERT2; Rosa26−mTmG flox/+ mice were used to lineage trace Axin2-expressing cells and gene expression analysis via qPCR (as described in Example 1) was performed on pulp cells from CD1 mouse molars. The first molars of genetically modified mice were collected 1 day after the injury and immunohistochemistry was performed. Deparaffinised sections were retrieved with sodium citrate (pH 6) and incubated with chicken polyclonal anti-GFP antibody (1:500; Abcam, Cambridge, Mass., USA; ab13970) overnight at 4° C. Sections were washed and exposed to appropriate biotinylated secondary antibody, then horseradish peroxidase (HRP)-conjugated streptavidin-biotin antibody and washed with PBST. Immunoreactivity was visualized with MenaPath green chromogen kit (Bio SB). […]

[9] = system: mouse maxillary first molars; assay: Reactionary dentine formation, non-exposed pulp injury model, micro-CT mineral content and linear measurement; type: in vivo; conditions: 50 nM, 4 weeks
Method: as §1
The exposed dentine was capped either with calcium hydroxide (Dycal; Dentsply) or mineral trioxide aggregate (MTA) (ProRoot MTA; Dentsply), or dry collagen sponge (Kolspon-Fish Collage Type 1; Eucare Ltd), or collagen sponge soaked in dimethyl sulfoxide (DMSO; SIGMA), or 50 nM Tideglusib, or 1 μM LY2157299, or 1 μM Dorsomorphin. All drugs were dissolved and diluted in DMSO. […]
Mice upper molars were dissected, fixed in 4% paraformaldehyde (PFA) for 24-hours at 4° C. and scanned using a Bruker Skyscan1272 micro-CT (pCT) scanner. […] The dentine thickness was measured using the “Line” function of the software. For the dentine thickness-analysis the distance between the center of the roof of the middle pulp horn and the floor of the injured dentine margin was measured. […] The region measured comprised only the site of injury. […]

[10] = system: Axin2 (Wnt activity) in dental pulp; assay: Axin2 qPCR of dental pulp one day after dentine injury without pulp exposure; type: in vivo, mouse
Method: All drugs were dissolved and diluted in DMSO.
as §2, with “PBST.” for “PBST. Immunoreactivity was visualized with MenaPath green chromogen kit (Bio SB).”

Structure (SMILES)	Pulp vitality [1]	BIO induction of Axin2 expression relative to CHIR99021 and Tideglusib ([2]; FIG. 1D) [×]	Wnt activity (Axin2 qPCR) [2]	MicroCT appearance of injury site ([3]; 4 weeks)	MicroCT appearance of injury site ([3]; 6 weeks)	Histology of reparative dentine formation ([4]; 4 weeks)	Histology of reparative dentine formation ([4]; 6 weeks)	Wnt activity / Axin2 expression (qPCR) in dental pulp cells [5]	Differentiation state of dental pulp cells [6]	Proliferation of dental pulp cells [6]	Structure of reactionary dentine (histology) [7]	Axin2+ (GFP-positive) cells in the dental pulp ([8]; Axin2-CreERT2, Rosa26-mTmG mice, vs collagen sponge only)	Wnt responsive (TCF/LEF+, GFP) cells under the injury ([8]; TCF/Lef:H2B-GFP reporter mice, vs collagen sponge alone)	Mineral band thickness at the site of injury (linear measurement) vs collagen sponge alone ([9]; FIG. 9E)	Mineral content under the injury site (micro-CT) ([9]; vs collagen sponge alone, FIG. 9D)	Wnt activity / early-response Axin2 expression (qPCR) ([10]; 1 day after injury without pulp exposure)	Axin2 expression compared to controls ([10]; 1 day after injury, FIG. 8E) [fold]	Amount of reactionary dentine formation (histology) compared with controls ([7]; 50 nM in collagen sponge, 4 weeks)	Pulp / tooth vitality ([7]; mouse, in vivo)
O=C1Nc2cc(Br)ccc2/C1=C1/Nc2ccccc2/C1=N\O [BIO, 6-bromoindirubin-3′-oxime]	dental pulp remained vital	4	Wnt activity increases after 30 minutes of incubation and remains elevated	mature mineral at the injury site	injury site filled with mature dentine	dense dentine formation at the injury site with vital pulp	filled the whole injury site from occlusal to pulp chamber roof; also recorded: new mature dentine formed where the sponge was placed filling the injury site	significant upregulation of Wnt activity	maintain human deciduous tooth dental pulp cells in the undifferentiated state	reduce proliferation	–	–	–	–	–	–	–	–	–
Cc1cccc(-c2nn3c(c2-c2ccnc4ccc(C(N)=O)cc24)CCC3)n1 [LY2157299]	–	–	–	–	–	–	–	–	–	–	disorganised (globular) dentine; also recorded: atypical globular dentine without tubular reactionary dentine features	–	–	–	–	–	–	–	–
O=c1sn(-c2cccc3ccccc23)c(=O)n1Cc1ccccc1 [Tideglusib, 4-Benzyl-2—(naphthalen-1-yl)-[1,2,4]thiadiazolidine-3,5-dione]	dental pulp remained vital	–	Wnt activity increases after 30 minutes of incubation and remains elevated	mature mineral at the injury site	mature reparative dentine formed at the injury site almost at the same Radiopacity as the primary/secondary dentine	dense dentine formation at the injury site with vital pulp	filled the whole injury site from occlusal to pulp chamber roof; also recorded: complete repair with vital dental pulp	significant upregulation of Wnt activity	–	–	normal tubular reactionary dentine formation	increase of TCF/LEF+cells and Axin2+ cells; also recorded: more GFP-positive cells	increase of TCF/LEF+cells; also recorded: increased local response to Wnt signalling	thicker mineral band	high mineral content; also recorded: increase of mature mineral formation	significant upregulation of Wnt activity	2	larger reactionary dentine secretion; also recorded: enhanced reactionary dentine formation	dental pulp remained vital

From patent US20190247396A1, “DENTAL TREATMENT” (KING'S COLLEGE LONDON, priority 2016, published 2019)
